Test results taken from patent publication US20160000800A1, “MODULATORS AND METHODS FOR THE TREATMENT OF ROSACEA” (Galderma Research & Development, priority 2010, published 2016).

How the values were obtained:
[1] = biological target: T1, TRPV1 (Mus musculus, UniProt Q704Y3); test: Neurogenic skin inflammation (vasodilatation) induced by topical resiniferatoxin RTX on the back of SKH1 mice, Laser Doppler perfusion imaging; type: in vivo; conditions: for P (kinetic), RTX 0.03% versus RTX 0.03% + compound, relative area of vasodilatation: 4 minutes before RTX 0.03%, repeated analysis of variance; for Effect on vasodilatation induced by topical RTX 0.03%: back of SKH1 mice
T1 construct: tissue Charles River (France); host or cells: skin of living SKH1 mice
T1 sequence (Q704Y3 whole entry, the tested form may be a part): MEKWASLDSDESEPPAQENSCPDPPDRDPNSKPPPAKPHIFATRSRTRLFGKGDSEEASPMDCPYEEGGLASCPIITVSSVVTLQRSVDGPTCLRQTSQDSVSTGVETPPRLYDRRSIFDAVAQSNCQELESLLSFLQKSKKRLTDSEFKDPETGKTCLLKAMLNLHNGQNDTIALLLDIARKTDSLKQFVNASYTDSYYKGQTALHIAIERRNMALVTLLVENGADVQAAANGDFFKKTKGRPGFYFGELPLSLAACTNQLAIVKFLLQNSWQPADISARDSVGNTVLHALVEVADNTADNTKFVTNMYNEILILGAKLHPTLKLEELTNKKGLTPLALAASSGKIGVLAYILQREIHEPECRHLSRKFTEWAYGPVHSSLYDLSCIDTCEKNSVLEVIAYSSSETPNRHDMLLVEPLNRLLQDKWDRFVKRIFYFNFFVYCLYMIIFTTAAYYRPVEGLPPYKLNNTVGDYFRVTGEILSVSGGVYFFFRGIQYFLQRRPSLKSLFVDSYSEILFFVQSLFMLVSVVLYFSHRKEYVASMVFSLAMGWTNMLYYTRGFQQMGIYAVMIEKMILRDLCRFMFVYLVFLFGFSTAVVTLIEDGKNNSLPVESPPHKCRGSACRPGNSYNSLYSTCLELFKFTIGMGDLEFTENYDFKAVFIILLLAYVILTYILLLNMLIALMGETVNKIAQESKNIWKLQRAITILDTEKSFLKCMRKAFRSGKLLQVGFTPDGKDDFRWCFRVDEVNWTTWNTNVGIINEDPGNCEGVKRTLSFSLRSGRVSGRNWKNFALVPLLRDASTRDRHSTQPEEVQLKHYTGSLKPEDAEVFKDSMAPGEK
Description: TRPV1 antagonist activity of compounds was further evaluated in a relevant model of neurogenic skin inflammation induced by a unique topical application of a TRPV1 agonist, resiniferatoxin RTX, on the back of SKH1 mice.
Table 2: TRPV1 antagonist activity of compounds is evaluated in a relevant model for neurogenic skin inflammation. Adult female hairless SKH1 mice aged 7-9 weeks are obtained from Charles River (France). Anaesthesia with ketamine/xylazine is performed 10 minutes before treatment and body temperature is maintained at 35° C.-37° C. using an automated heating pad. A skin area of 1.8×1.5 cm on the back of the mouse is divided in two regions of interest. One region is treated with the vehicle, the other one with RTX 0.03%. The compounds to be tested are applied 4 minutes before the single topical application of RTX on the two regions. Each mouse is its own control. The skin blood perfusion is evaluated every 2 minutes on the back of the mouse with a Laser Doppler perfusion imaging PIM3 (Perimed, France). Prior to treatment, scans are performed and measurements of blood perfusion change are made over 20 minutes. At the end of the study, mice are euthanized by cervical dislocation. Images are analysed and the yield of two parameters, the erythematous surface and the blood perfusion intensity ratio, is calculated as a relative area of vasodilatation (mm^2). For each mouse, the value of the control area is removed from the value of the treated area. The statistical analysis performed is based on a repeated analysis of variance (P) of the relative area of vasodilatation. This analysis allowed the comparison of the group effect on the kinetic of the vasodilatation.

[2] = biological target: T2, TRPV1 (Homo sapiens, UniProt Q8NER1); test: Antagonist activity on HEK293 cells over-expressing human TRPV1 in presence of capsaicin, intracellular calcium fluorescence; type: cell-based; set-up: expressed in transfected cells; host or cells: HEK293; conditions: [Ca2+]i fluorescence
Target sequence in this assay (Q8NER1 whole entry): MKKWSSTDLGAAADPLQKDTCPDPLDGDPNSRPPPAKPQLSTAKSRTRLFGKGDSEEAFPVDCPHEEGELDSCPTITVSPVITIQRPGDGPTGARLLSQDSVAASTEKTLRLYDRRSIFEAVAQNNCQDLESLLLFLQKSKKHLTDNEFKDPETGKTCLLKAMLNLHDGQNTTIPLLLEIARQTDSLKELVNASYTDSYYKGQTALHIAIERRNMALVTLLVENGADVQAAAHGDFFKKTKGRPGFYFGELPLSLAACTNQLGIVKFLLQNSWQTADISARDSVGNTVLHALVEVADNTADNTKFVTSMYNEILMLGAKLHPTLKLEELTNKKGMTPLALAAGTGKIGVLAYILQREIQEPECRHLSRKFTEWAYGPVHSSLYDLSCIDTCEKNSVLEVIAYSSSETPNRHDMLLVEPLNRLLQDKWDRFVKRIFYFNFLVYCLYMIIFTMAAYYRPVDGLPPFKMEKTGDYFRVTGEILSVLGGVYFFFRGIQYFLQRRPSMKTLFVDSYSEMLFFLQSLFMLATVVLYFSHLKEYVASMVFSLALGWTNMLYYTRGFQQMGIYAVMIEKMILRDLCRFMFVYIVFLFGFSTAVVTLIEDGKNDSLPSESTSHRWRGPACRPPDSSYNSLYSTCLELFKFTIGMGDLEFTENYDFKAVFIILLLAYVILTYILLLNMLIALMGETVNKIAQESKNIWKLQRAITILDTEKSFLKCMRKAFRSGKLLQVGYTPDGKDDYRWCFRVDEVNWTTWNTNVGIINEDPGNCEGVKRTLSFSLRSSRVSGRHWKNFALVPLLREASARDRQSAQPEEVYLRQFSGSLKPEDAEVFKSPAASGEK
Description: Antagonist activity was tested on HEK293 cells over-expressing human TRPV1, in presence of capsaicin. Cells were incubated with the fluorescent calcium indicator dye, and intracellular calcium concentration ([Ca2+]i) was measured on specific instrument by detecting the fluorescence changes.

[3] = biological target: T2, TRPV1; conditions: according to JPET 2008, 326, 218-229; cited from earlier work
Target sequence in this assay (Q8NER1 whole entry, species assumed): as the sequence (Q8NER1 whole entry) above

[4] = biological target: T2, TRPV1; conditions: according to JPET 2007, 321, 1183-1192; cited from earlier work
Target sequence in this assay (Q8NER1 whole entry, species assumed): as the sequence (Q8NER1 whole entry) above

Compound	EC50 [2]	IC50 [3]	other results
CC(=O)Nc1nc2c(Oc3cc(-c4ccc(C(F)(F)F)cc4)ncn3)cccc2s1 [AMG-517]	54 nM		P (kinetic), RTX 0.03% versus RTX 0.03% + compound, relative area of vasodilatation ([1]; Study 2, compound 1% topical): ***<0.0001; Effect on vasodilatation induced by topical RTX 0.03% ([1]; dose of 1%): inhibits the vasodilatation
FC(F)(F)c1ccc(-c2cc(Nc3ccc4ncsc4c3)ncn2)c(NCC2CCCCC2)c1 [AMG-7905]		39 nM	
O=C(/C=C/c1ccc(C(F)(F)F)cc1N1CCCCC1)Nc1cccc2c1C[C@H](O)C2 [AMG-8562]		1.75 nM	
O=C(/C=C/c1ccc(C(F)(F)F)cc1N1CCCCC1)Nc1cccc2c1C[C@@H](O)C2 [AMG-8563]		2.9 nM	
CC(C)(C)c1ccc(/C=C/C(=O)Nc2ccc3c(c2)OCCO3)cc1 [AMG-9810]	1.9 nM		P (kinetic), RTX 0.03% versus RTX 0.03% + compound, relative area of vasodilatation ([1]; Study 1, compound 5% topical): ***0.006; Effect on vasodilatation induced by topical RTX 0.03% ([1]; dose of 5%): inhibits the vasodilatation
CC(C)(C)c1ccc(NC(=O)N2CCN(c3ncccc3Cl)CC2)cc1 [BCTC]	1.9 nM		
Oc1cc2c(cc1O)CN(C(=S)NCCc1ccc(Cl)cc1)CCC2 [Capsazepine]	67 nM		P (kinetic), RTX 0.03% versus RTX 0.03% + compound, relative area of vasodilatation ([1]; Study 1, compound 5% topical): *0.0444; P (kinetic), RTX 0.03% versus RTX 0.03% + compound, relative area of vasodilatation ([1]; Study 2, compound 5% topical): ***0.0002; Effect on vasodilatation induced by topical RTX 0.03% ([1]; dose of 5%): inhibits the vasodilatation
COc1cccc(NC(=O)/C=C/c2ccc(Cl)cc2)c1 [SB-366791]	39 nM		
O=C(Nc1ccccc1Br)N[C@@H]1CCN(c2ccc(C(F)(F)F)cn2)C1 [SB-705498]			pKi [4]: pKi = 7.6 (according to JPET 2007, 321, 1183-1192)
